The test system of this series is mouse brain, dopaminergic neurons. Briefly: MRI imaging of mouse brain after injection of tracer. It counts as in vivo. Particulars: mice, MRI images 48 hours after administration. From the text: The central figure is a chimera directly comparing the left hemisphere of the control with the right hemisphere of the TP-TEMPO treated. In this central image the “Y” shaped region (1) is where the dopaminergic neurons are found.
With its dependence on the more biologically variable parameters of proton density, longitudinal relaxation time (T1), and transverse relaxation time (T2), variable image contrast can be achieved by using different pulse sequences and by changing the imaging parameters. Signal intensities on T1, T2, and proton density-weighted images relate to specific tissue characteristics. Moreover, with MRI's multi-planar capability, the imaging plane can be optimized for the anatomic area being studied, and the relationship of lesions to eloquent areas of the brain can be defined more accurately. Since T2-weighted images are most sensitive for detecting brain pathology, patients with suspected intracranial disease are typically screened using the T2-weighted regime. However, it has proven difficult to apply MRI to Parkinson's disease, as the dompaminergic neurons have the same MRI characteristics as the surrounding tissues, so that the Parkinson's lesions are invisible using conventional MRI and can only be detected using histology post-mortem. […]

On to `CN1CC=C(C2CC(C)(C)N(O)C(C)(C)C2)CC1` [TP-TEMPO, 2,2,6,6-tetramethyl-4-(1-methyl-1,2,3,6-tetrahydropyridin-4-yl)piperidin-1-oxyl], for which the “migration of probe to the dopaminergic neurons” value is given as “preferentially migrated to the dopaminergic neurons” and the “partitioning of probe into the brain” value is recorded as “partitioned preferentially into the brain”.

(Values after US20070275944A1, “Antioxidants and methods of their use” (The Board of Trustees Operating Michigan State University, priority 2006, published 2007).)
